Experimental data as given in patent US20120316203A1, “Compositions and Methods for Inhibition of Cancers” (THE OHIO STATE UNIVERSITY RESEARCH FOUNDATION, priority 2009, published 2012).

Columns and labels:
[1] = test system: Bcl-xL, Bcl-2, survivin, VEGF, and cyclin D1 in A2780 cells; assay: Western blot of STAT3 target proteins; type: cell-based, human; settings: 10 and 20 μmol/L, 24-hour exposure
Protocol: Equal volumes of DMSO (0.1% v/v) were present in each treatment. Following treatment, the cell lysates were prepared in non-denaturing lysis buffer containing 10 mmol/L Tris-HCl (pH 7.4), 150 mmol/L NaCl, 1% Triton X-100, 1 mmol/L EDTA, 1 mmol/L EGTA, 0.3 mmol/L phenylmethyl-sulfonyl fluoride, 0.2 mmol/L sodium orthovanadate, 0.5% NP40, 1 μg/mL aprotinin, and 1 μg/mL leupetin. The lysates were centrifuged at 10,000×g for 20 minutes at 4° C. and the supernatant was separated. The protein concentration in the lysates was determined using a Pierce detergent-compatible protein assay kit. For Western blotting, 25 to 50 μg of protein lysate per sample were denatured in 2×SDS-PAGE sample buffer and subjected to SDS-PAGE on a 10% tris-glycine gel. The separated proteins were transferred to a polyvinylidene fluoride membrane and were blocked with 5% nonfat milk powder (w/v) in TBST (10 mmol/L Tris, 10 mmol/L NaCl, 0.1% Tween 20) for 1 hour at room temperature or overnight at 4° C. The membranes were then incubated with the primary antibodies. The bound antibodies were detected with horseradish peroxidase-labeled sheep anti-mouse IgG or horseradish peroxidase-labeled donkey anti-rabbit IgG using an enhanced chemiluminescence detection system (ECL Advanced kit). Protein expressions were determined using the Image Gauge v. 3.45 software. […]

[2] = test system: A2780R, PA-1, SKOV3, OV4, and OVCAR3 human ovarian cancer cell lines; assay: Cell viability by MTT assay, other ovarian cancer cell lines; type: cell-based; settings: 10 μmol/L; 24 h
Protocol: (§1) Cell viability was determined by a colorimetric assay using MTT. In the mitochondria of living cells, yellow MTT undergoes a reductive conversion to formazan, producing a purple color. Cells, grown to […] confluence in 75-mm flasks, were trypsinized, counted, seeded in 96-well plates with an average population of 7,000 cells per well, incubated overnight, and then treated with curcumin, H-4073, or HO-3867 for 24 hours. All experiments were done using eight replicates and, repeated at least thrice.

A2780 cells [3] = assay: Cell viability by MTT assay, A2780 cells; type: cell-based, human; settings: 24 hours, dose series
Protocol: as §1

A2780 cells [4] = assay: Intracellular ROS by DCF fluorescence, A2780; type: cell-based, human; settings: 5 or 10 μM, 12 h
Protocol: The ROS levels in cells treated with DAPs were determined using H2DCF-DA, a membrane-permeative fluorogenic probe. The acetate and acetoxymethyl ester groups of this probe are enzymatically cleaved inside living cells. The probe can then be oxidized by intracellular oxidants (ROS) to give a product, DCF, which emits a strong, green fluorescence (λex=504 nm; λem=529 nm). The fluorescence intensity is proportional to the level of cellular oxidants. Cells, grown to 80% confluence on 6-mm glass coverslips, were treated with […] H-4073, HO-3867, H-4318, or HO-4200 for 12 h, followed by incubation with H2DCF-DA. The cells were further incubated in the dark for 20 min and washed with protein-free medium, and then fluorescence images were immediately captured with a Nikon Eclipse TE2000-U camera system using excitation/emission at 495/520 nm. The captured images were then analyzed using MetaMorph image analysis software.

[5] = test system: A2780, A2780R, MCF-7, HCT-116, PC-3, HepG2, A549, and SCC4 human cancer cell lines; assay: Cytotoxicity of DAPs to cancer cells (MTT); type: cell-based; settings: 10 μM, 24 h
Protocol: Cell viability was determined by a colorimetric assay using MTT. In the mitochondria of living cells, yellow MTT undergoes a reductive conversion to formazan, giving a purple color. Cells, grown to […] confluence in 75-mm flasks, were trypsinized, counted, seeded in 96-well plates with an average population of 7000 cells/well, incubated overnight, and then treated with the DAPs (H-4073, HO-3867, H4318, or HO-4200; […]) for 24 h. All experiments were done using eight replicates and repeated at least three times. Cell viability was expressed as the percentage of MIT viability of untreated cells.

[6] = test system: A2780 xenograft tumor tissues; assay: FAS/FAK and VEGF levels in xenograft tumor tissues (immunoblot, immunohistochemistry); type: in vivo, BALB/c nude mice
Protocol: A2780 cells (5×10^6 cells in 60 μl of PBS) were subcutaneously (s.c.) injected into the back of 6-week-old BALB/c nude mice from the National Cancer Institute. On the 5th day when the tumor size reached approximately 2 to 4 mm, the control groups was supplemented a normal diet (no treatment) while the experimental groups were treated using the DAP compounds mixed with the animal feed ([…]). The doses were chosen based on an initial dose-response study optimized to produce an observable effect on tumor growth. The tumor tissues were then subjected to immunoblotting and immunohistochemistry.
Tumor tissues were fixed in formalin and embedded in paraffin. Sections (6-μm thick) were obtained and used for hematoxylin and eosin staining. For immunofluorescence staining, the tissue sections (8-μm thick) were serially rehydrated in 100%, 95%, and 80% ethanol after deparaffinization with xylene. Slides were kept in steam for 30 min and then washed in PBS (pH 7.4) three times for 5 min each. Tissue sections were incubated with 2% goat serum and 5% bovine serum albumin in PBS to reduce nonspecific binding. The sections were then incubated for 4 h with an anti-mouse anti-FAS, or anti-VEGF. The sections were then incubated with secondary antibodies (1:1000 dilutions) conjugated to horseradish peroxidase (HRP)-labeled sheep anti-mouse IgG or HRP-labeled donkey anti-rabbit IgG (Amersham Pharmacia Biotech). The tissue slides were visualized using a Nikon fluorescence microscope.

[7] = 50 or 100 ppm in feed, dose-dependent

## CC1(C)C=C(CN2C/C(=C\c3ccc(F)cc3)C(=O)/C(=C/c3ccc(F)cc3)C2)C(C)(C)N1O [HO-3867, 1-[(1-oxyl-2,2,5,5-tetramethyl-2,5-dihydro-1H-pyrrol-3-yl)methyl]-(3E,5E)-3,5-bis(4-fluorobenzylidene)piperidin-4-one]
[1]
  Bcl-xL, Bcl-2, survivin, and VEGF levels: clear reduction
  cyclin D1 level: no significant change
[2]
  cytotoxicity in other human ovarian cancer cell lines: equally and significantly toxic
A2780 cells [3]
  cytotoxicity, viability of A2780 cells: significantly higher toxicity when compared with curcumin
A2780 cells [4]
  intracellular ROS generation (DCF fluorescence) in A2780 cells: comparable in inducing ROS generation
[5]
  cell viability of human cancer cell lines: substantial loss of cell viability
[6]; [7]
  SREBP1, MMP-2, and VEGF in xenografted tumor tissues: clear down-regulation
  expression of FAS and FAK in xenografted tumor tissues: decreased expression
[6]; mouse, in vivo
  protein levels of FAS and VEGF by immunocytochemistry in tumor-bearing mice: significantly inhibited
